Experimental data reported in PubChem BioAssay (NCI).
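Cultured in 96-well plates, cells were exposed to test compound for 48 hours across five concentrations. At the TGI there is no net growth.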

Experiments:
Assay in all cases: NCI anticancer screen, dose series, 48 h
SW-620 colon = test system: SW-620 colon
BT-549 breast = test system: BT-549 breast
U251 CNS = test system: U251 CNS
SK-MEL-5 melanoma = test system: SK-MEL-5 melanoma
MDA-MB-435 = test system: MDA-MB-435
EKVX NSCLC = test system: EKVX NSCLC
RPMI-8226 leukemia = test system: RPMI-8226 leukemia
M14 melanoma = test system: M14 melanoma
TK-10 renal = test system: TK-10 renal
OVCAR-4 ovarian = test system: OVCAR-4 ovarian
NCI/ADR-RES ovarian = test system: NCI/ADR-RES ovarian
SF-295 CNS = test system: SF-295 CNS
SNB-19 CNS = test system: SNB-19 CNS
SNB-75 CNS = test system: SNB-75 CNS
T-47D breast = test system: T-47D breast
COLO 205 colon = test system: COLO 205 colon
NCI-H226 lung = test system: NCI-H226 lung
HL-60(TB) leukemia = test system: HL-60(TB) leukemia
HCT-15 colon = test system: HCT-15 colon
DU-145 prostate = test system: DU-145 prostate
SF-268 CNS = test system: SF-268 CNS
RXF 393 renal = test system: RXF 393 renal
CCRF-CEM leukemia = test system: CCRF-CEM leukemia
PC-3 prostate = test system: PC-3 prostate
UO-31 renal = test system: UO-31 renal
NCI-H23 lung = test system: NCI-H23 lung
UACC-62 melanoma = test system: UACC-62 melanoma
OVCAR-8 ovarian = test system: OVCAR-8 ovarian
OVCAR-5 ovarian = test system: OVCAR-5 ovarian
LOX IMVI melanoma = test system: LOX IMVI melanoma
MALME-3M melanoma = test system: MALME-3M melanoma
SN12C renal = test system: SN12C renal
SK-MEL-28 melanoma = test system: SK-MEL-28 melanoma
OVCAR-3 ovarian = test system: OVCAR-3 ovarian
CAKI-1 renal = test system: CAKI-1 renal
MCF7 breast = test system: MCF7 breast
SK-OV-3 ovarian = test system: SK-OV-3 ovarian
HOP-92 NSCLC = test system: HOP-92 NSCLC
SK-MEL-2 melanoma = test system: SK-MEL-2 melanoma
MDA-N = test system: MDA-N
HT29 colon = test system: HT29 colon
A498 renal = test system: A498 renal
HS 578T breast = test system: HS 578T breast
K-562 leukemia = test system: K-562 leukemia
786-0 renal = test system: 786-0 renal
MDA-MB-231 breast = test system: MDA-MB-231 breast
HCT-116 colon = test system: HCT-116 colon
NCI-H522 lung = test system: NCI-H522 lung
IGROV1 ovarian = test system: IGROV1 ovarian
HOP-62 NSCLC = test system: HOP-62 NSCLC
KM12 colon = test system: KM12 colon
A549 NSCLC = test system: A549 NSCLC
ACHN renal = test system: ACHN renal
MOLT-4 leukemia = test system: MOLT-4 leukemia
UACC-257 melanoma = test system: UACC-257 melanoma
HCC-2998 colon = test system: HCC-2998 colon
SF-539 CNS = test system: SF-539 CNS
NCI-H460 lung = test system: NCI-H460 lung

Structure (SMILES): Clc1ccc2c(NCCNC3CCCCC3)ccnc2c1
- TGI (SW-620 colon): 29.7 µM
- TGI (BT-549 breast): 23.3 µM
- TGI (U251 CNS): 17.7 µM
- TGI (SK-MEL-5 melanoma): 3.16 µM
- TGI (MDA-MB-435): 9.92 µM
- TGI (EKVX NSCLC): 15.7 µM
- TGI (RPMI-8226 leukemia): 17 µM
- TGI (M14 melanoma): 3.41 µM
- TGI (TK-10 renal): 7.15 µM
- TGI (OVCAR-4 ovarian): 46.5 µM
- TGI (NCI/ADR-RES ovarian): 33.7 µM
- TGI (SF-295 CNS): 10.3 µM
- TGI (SNB-19 CNS): 35.5 µM
- TGI (SNB-75 CNS): 23.4 µM
- TGI (T-47D breast): 64.6 µM
- TGI (COLO 205 colon): 2.79 µM
- TGI (NCI-H226 lung): 24.8 µM
- TGI (HL-60(TB) leukemia): 6.63 µM
- TGI (HCT-15 colon): 20.4 µM
- TGI (DU-145 prostate): 36.7 µM
- TGI (SF-268 CNS): 22.8 µM
- TGI (RXF 393 renal): 27.1 µM
- TGI (CCRF-CEM leukemia): 9.77 µM
- TGI (PC-3 prostate): 33.9 µM
- TGI (UO-31 renal): 11.2 µM
- TGI (NCI-H23 lung): 32.2 µM
- TGI (UACC-62 melanoma): 15.8 µM
- TGI (OVCAR-8 ovarian): 31.9 µM
- TGI (OVCAR-5 ovarian): 30.5 µM
- TGI (LOX IMVI melanoma): 8.53 µM
- TGI (MALME-3M melanoma): 3.64 µM
- TGI (SN12C renal): 33.8 µM
- TGI (SK-MEL-28 melanoma): 3.62 µM
- TGI (OVCAR-3 ovarian): 37.5 µM
- TGI (CAKI-1 renal): 24.3 µM
- TGI (MCF7 breast): 15.9 µM
- TGI (SK-OV-3 ovarian): 37.8 µM
- TGI (HOP-92 NSCLC): 22.5 µM
- TGI (SK-MEL-2 melanoma): 11 µM
- TGI (MDA-N): 5.42 µM
- TGI (HT29 colon): 14.8 µM
- TGI (A498 renal): 5.85 µM
- TGI (HS 578T breast): 8.15 µM
- TGI (K-562 leukemia): 6.13 µM
- TGI (786-0 renal): 20.9 µM
- TGI (MDA-MB-231 breast): 23.8 µM
- TGI (HCT-116 colon): 21.1 µM
- TGI (NCI-H522 lung): 7.46 µM
- TGI (IGROV1 ovarian): 27.8 µM
- TGI (HOP-62 NSCLC): 27.4 µM
- TGI (KM12 colon): 31 µM
- TGI (A549 NSCLC): 31.2 µM
- TGI (ACHN renal): 25.3 µM
- TGI (MOLT-4 leukemia): 18.6 µM

Structure (SMILES): Cn1c(=O)c2ccccc2c2ccccc21
- TGI (SW-620 colon): > 100 µM
- TGI (BT-549 breast): > 100 µM
- TGI (U251 CNS): > 100 µM
- TGI (SK-MEL-5 melanoma): 95.7 µM
- TGI (UACC-257 melanoma): > 100 µM
- TGI (HCC-2998 colon): > 100 µM
- TGI (MDA-MB-435): > 100 µM
- TGI (EKVX NSCLC): 63.1 µM
- TGI (RPMI-8226 leukemia): > 100 µM
- TGI (M14 melanoma): > 100 µM
- TGI (TK-10 renal): > 100 µM
- TGI (OVCAR-4 ovarian): > 100 µM
- TGI (NCI/ADR-RES ovarian): > 100 µM
- TGI (SF-295 CNS): > 100 µM
- TGI (SNB-19 CNS): > 100 µM
- TGI (SNB-75 CNS): > 100 µM
- TGI (T-47D breast): > 100 µM
- TGI (COLO 205 colon): > 100 µM
- TGI (NCI-H226 lung): > 100 µM
- TGI (HCT-15 colon): > 100 µM
- TGI (DU-145 prostate): > 100 µM
- TGI (SF-268 CNS): > 100 µM
- TGI (RXF 393 renal): > 100 µM
- TGI (CCRF-CEM leukemia): > 100 µM
- TGI (PC-3 prostate): > 100 µM
- TGI (UO-31 renal): > 100 µM
- TGI (NCI-H23 lung): > 100 µM
- TGI (SF-539 CNS): > 100 µM
- TGI (UACC-62 melanoma): > 100 µM
- TGI (OVCAR-8 ovarian): > 100 µM
- TGI (LOX IMVI melanoma): > 100 µM
- TGI (MALME-3M melanoma): > 100 µM
- TGI (SN12C renal): > 100 µM
- TGI (SK-MEL-28 melanoma): > 100 µM
- TGI (OVCAR-3 ovarian): > 100 µM
- TGI (CAKI-1 renal): 89.8 µM
- TGI (NCI-H460 lung): > 100 µM
- TGI (MCF7 breast): > 100 µM
- TGI (SK-OV-3 ovarian): 94.1 µM
- TGI (HOP-92 NSCLC): > 100 µM
- TGI (SK-MEL-2 melanoma): > 100 µM
- TGI (MDA-N): > 100 µM
- TGI (HT29 colon): > 100 µM
- TGI (A498 renal): 93.8 µM
- TGI (HS 578T breast): > 100 µM
- TGI (786-0 renal): > 100 µM
- TGI (MDA-MB-231 breast): > 100 µM
- TGI (HCT-116 colon): > 100 µM
- TGI (NCI-H522 lung): > 100 µM
- TGI (HOP-62 NSCLC): > 100 µM
- TGI (KM12 colon): > 100 µM
- TGI (A549 NSCLC): > 100 µM
- TGI (ACHN renal): > 100 µM

Structure (SMILES): CCSc1cc(C(=O)OC)c2n(c1=O)CCCC2
- TGI (SW-620 colon): > 100 µM
- TGI (BT-549 breast): > 100 µM
- TGI (U251 CNS): > 100 µM
- TGI (SK-MEL-5 melanoma): > 100 µM
- TGI (UACC-257 melanoma): > 100 µM
- TGI (MDA-MB-435): > 100 µM
- TGI (EKVX NSCLC): > 100 µM
- TGI (M14 melanoma): > 100 µM
- TGI (TK-10 renal): > 100 µM
- TGI (OVCAR-4 ovarian): > 100 µM
- TGI (NCI/ADR-RES ovarian): > 100 µM
- TGI (SF-295 CNS): > 100 µM
- TGI (SNB-19 CNS): > 100 µM
- TGI (SNB-75 CNS): > 100 µM
- TGI (T-47D breast): > 100 µM
- TGI (COLO 205 colon): > 100 µM
- TGI (NCI-H226 lung): > 100 µM
- TGI (HL-60(TB) leukemia): > 100 µM
- TGI (HCT-15 colon): > 100 µM
- TGI (DU-145 prostate): > 100 µM
- TGI (SF-268 CNS): > 100 µM
- TGI (RXF 393 renal): > 100 µM
- TGI (CCRF-CEM leukemia): > 100 µM
- TGI (PC-3 prostate): > 100 µM
- TGI (UO-31 renal): > 100 µM
- TGI (NCI-H23 lung): > 100 µM
- TGI (SF-539 CNS): > 100 µM
- TGI (UACC-62 melanoma): > 100 µM
- TGI (OVCAR-8 ovarian): > 100 µM
- TGI (OVCAR-5 ovarian): > 100 µM
- TGI (LOX IMVI melanoma): > 100 µM
- TGI (MALME-3M melanoma): > 100 µM
- TGI (SN12C renal): > 100 µM
- TGI (SK-MEL-28 melanoma): > 100 µM
- TGI (CAKI-1 renal): > 100 µM
- TGI (MCF7 breast): > 100 µM
- TGI (SK-OV-3 ovarian): > 100 µM
- TGI (SK-MEL-2 melanoma): > 100 µM
- TGI (MDA-N): > 100 µM
- TGI (HT29 colon): > 100 µM
- TGI (A498 renal): > 100 µM
- TGI (HS 578T breast): > 100 µM
- TGI (786-0 renal): > 100 µM
- TGI (MDA-MB-231 breast): > 100 µM
- TGI (HCT-116 colon): > 100 µM
- TGI (NCI-H522 lung): > 100 µM
- TGI (IGROV1 ovarian): > 100 µM
- TGI (HOP-62 NSCLC): > 100 µM
- TGI (KM12 colon): > 100 µM
- TGI (A549 NSCLC): > 100 µM
- TGI (ACHN renal): > 100 µM
- TGI (MOLT-4 leukemia): > 100 µM
